In PMC3963473, “Structure–Activity Relationship Studies of Pyrrolone Antimalarial Agents” (Chemmedchem, 2013):
Values after ≈ are worked out from the molar mass of the structure shown. Read-outs that look alike come from different tables or passages of the source.

Tests used:
Plasmodium falciparum K1 = assay: microbe, parasite or virus in culture; assay type: cell-based; conditions: for EC50: Plasmodium falciparum, K1, read-out: EC50 P. falc.
Procedure: (§1) V. Design and Results of the in vitro & in vivo Studies.
A. Drug inhibition of in vitro cultured P. falciparum parasite:2 All in vitro assays were carried out twice independently. In vitro activity against the erythrocytic stages of P. falciparum was determined by using a 3H-hypoxanthine incorporation assay,5-6 using the […]
were dissolved in DMSO at 10 mg/mL and added to parasite cultures incubated in RPMI […]
haematocrit (0.3% parasitaemia). Serial doubling dilutions of each drug were prepared in […]
After 48 h, 50 µL of 3H-hypoxanthine (= 0.5 µCi) was added to each well of the plate. The plates were incubated for an additional 24 h under the same conditions. The plates were then harvested with a Betaplate cell harvester (Wallac, Zurich, Switzerland), and the red blood cells were transferred onto a glass fiber filter and then washed with distilled water. The dried filters were inserted into a plastic foil with 10 mL of scintillation fluid and were counted in a Betaplate™ liquid scintillation counter (Wallac, Zurich, […]

L6 cells = assay: In vitro cytotoxicity assay in L6 cells (Alamar Blue); assay type: cell-based; conditions: Rattus norvegicus, mean of two independent assays, read-out: EC50 L6 cells
Procedure: as §1
A. Drug inhibition of in vitro cultured P. falciparum parasite:2 All in vitro assays were carried out twice independently. In vitro activity against the erythrocytic stages of P. […]
B. In vitro cytotoxicity assay:2 Assays were performed in 96-well microtiter plates, each […]
mM) and 10% fetal bovine serum, and 4 x 10^4 L-6 cells (a primary cell line derived from rat skeletal myoblasts). Serial drug dilutions of seven 3-fold dilution steps covering a range […]
After 72 h of incubation the plates were inspected […]
of Alamar Blue was then added to each well and the plates incubated for another 2 h.
Then the plates were read with a Spectramax Gemini XS microplate fluorometer (Molecular Devices Cooperation, Sunnyvale, CA, USA) using an excitation wave length of […]
Data were analysed using the microplate reader software Softmax Pro (Molecular Devices Cooperation, Sunnyvale, CA, USA).

[1] = Aqueous solubility estimated by nephelometry; assay type: physicochemical; conditions: kinetic from dmso stock, water, read-out: Solubility water
Procedure: III. Physicochemical Evaluation […]
Solubility Estimation: Aqueous solubility was estimated by nephelometry.
Compound in DMSO was spiked into either water, pH 6.5 phosphate buffer or 0.01N HCl
(approx. pH 2.0) with the final DMSO concentration being 1%. Samples were then
analyzed by Nephelometry to determine the solubility range as described previously.1

[2] = test system: green fluorescent protein (GFP)-transfected Plasmodium berghei ANKA; assay type: in vivo; conditions: for [%] Reduction parasitaemia: mice, 10 % DMSO in water; for Survival: in vivo
Procedure: In vivo efficacy studies: The protocols are described in the Supporting Information. In vivo efficacy studies in mice were conducted at the Swiss Tropical & Public Health Institute (Basel, Switzerland) according to the rules and regulations for the protection of animal rights (“Tierschutzverordnung”) of the Swiss “Bundesamt für Veterinärwesen”. They were approved by the veterinary office of Canton Basel-Stadt, Switzerland.
C. In vivo antimalarial efficacy studies (4 days treatment).2
In vivo antimalarial activity was assessed basically as previously described. Groups of […]
erythrocytes on day 0 with GFP-transfected P. berghei strain ANKA. .Unless otherwise indicated compounds were formulated in 100% DMSO, diluted 10-fold in distilled water and administered intraperitoneally or orally in a volume of 10 mL kg-1 on four consecutive days (4, 24, 48 and 72 h post infection). Parasitemia was determined on day 4 post infection (24 h after last treatment) by FACS analysis. Activity was calculated as the difference between the mean per cent parasitaemia for the control (n=5 mice) and treated groups expressed as a per cent relative to the control group. The survival time in days was also recorded up to 30 days after infection. A compound was considered curative if the animal survived to day 30 after infection with no detectable parasites. All protocols and procedures used in the current study were reviewed and approved by the local veterinary authorities of the Canton Basel-Stadt.

Plasmodium berghei = test system: Plasmodium berghei; set-up: method as in PMID 23517371; conditions: P. berghei mouse model; dosed intraperitoneally; cited from earlier work
[3] = Table 1, A-ring variants, mammalian L6 cells
[4] = Table 2, C-ring variants, L6 cells

| Structure (SMILES) | EC50 (Plasmodium falciparum K1) | EC50 (L6 cells; [3]) | solubility ([1]; Table 1, nephelometry, 1% DMSO) | [%] Reduction parasitaemia ([2]; 50 mg kg^−1 day^−1 ip) | activity in vivo (in words) ([2]; 50 mg/kg ip and 100 mg/kg po) | [%] Reduction parasitaemia ([2]; 100 mg kg^−1 day^−1 po) | Survival ([2]; ip) | Survival ([2]; po) | depression of parasitaemia (Plasmodium berghei) | EC50 (L6 cells; [4]) | solubility ([1]; Table 2) | melting point | EC50 (P. falciparum K1) (Plasmodium falciparum K1; values in nM) |
| --- | --- | --- | --- | --- | --- | --- | --- | --- | --- | --- | --- | --- | --- |
| CCOC(=O)C1=C(C)N/C(=C/c2cc(C)n(C3CCN(Cc4ccc(C(F)(F)F)nc4)CC3)c2C)C1=O [Compound 43] | 4 nM | 49000 nM | > 125 µM | 10.0% | failed to show significant activity in vivo | 0.0% | 4 days | 4 days | – | – | – | – | – |
| CCOC(=O)C1=C(C)N/C(=C/c2cc(C)n(-c3ccccc3C(F)(F)F)c2C)C1=O [TDR32750] | – | – | – | – | – | – | – | – | > 99% | – | – | – | – |
| Cc1cc(/C=C2/Nc3cc[nH]c(=O)c3C2=O)c(C)n1-c1ccccc1C(F)(F)F [Compound 56] | 47 nM | – | – | 21.8% | – | 13.6% | 4 days | 4 days | – | 54000 nM | > 125 µM | – | – |
| Cc1cc(/C=C2/Nc3ccn(Cc4ccncc4)c(=O)c3C2=O)c(C)n1-c1ccccc1C(F)(F)F [Compound 64] | 77 nM | – | – | – | – | – | – | – | – | 38000 nM | > 125 µM | 215 to 240 °C | – |
| CCOC(=O)C1=C(C)N/C(=C/c2cc(C)n(C3CCN(CC4CCCCC4)CC3)c2C)C1=O [Compound 40] | 16 nM | 13000 nM | > 125 µM | – | – | – | – | – | – | – | – | 184 to 186 °C | – |
| Cc1cc(/C=C2/Nc3ccn(Cc4ccc(C(F)(F)F)cc4)c(=O)c3C2=O)c(C)n1-c1ccccc1C(F)(F)F [Compound 63] | 46 nM | – | – | – | – | – | – | – | – | 54000 nM | 89 µM (≈ 49.6 µg/mL) | 235 to 240 °C | – |
| CCn1ccc2c(c1=O)C(=O)/C(=C\c1cc(C)n(-c3ccccc3C(F)(F)F)c1C)N2 [Compound 58] | 21 nM | – | – | – | – | – | – | – | – | 36000 nM | > 125 µM | 204 to 205 °C | – |
| Cc1cc(/C=C2/Nc3ccn(C)c(=O)c3C2=O)c(C)n1-c1ccccc1C(F)(F)F [Compound 57] | 14 nM | – | – | 99.9% | – | 50.5% | – | 8 days | – | 29000 nM | > 125 µM | – | – |
| CCOC(=O)C1=C(C)N/C(=C/c2cc(C)n(C3CCN(Cc4cocn4)CC3)c2C)C1=O [Compound 48] | 18 nM | 160 nM | > 125 µM | – | – | – | – | – | – | – | – | 180 to 182 °C | – |
| CCOC(=O)C1=C(C)N/C(=C/c2cc(C)n(C3CCN(c4ccc(C(F)(F)F)cc4)CC3)c2C)C1=O [Compound 30] | 24 nM | 10000 nM | > 125 µM | – | – | – | – | – | – | – | – | 153 to 158 °C | – |
| CCOC(=O)C1=C(C)N/C(=C/c2cc(C)n(C3CCN(C(C)c4ccccc4C(F)(F)F)CC3)c2C)C1=O (stereo not shown) [Compound 36] | 1 nM | 3000 nM | > 125 µM | – | – | – | – | – | – | – | – | 138 to 142 °C | – |
| CCOC(=O)C1=C(C)N/C(=C/c2cc(C)n(C3CCN(Cc4ccc(F)cc4C(F)(F)F)CC3)c2C)C1=O [Compound 44] | 0.4 nM | 1200 nM | > 125 µM | – | – | – | – | – | – | – | – | 145 to 148 °C | sub-nanomolar |
